logP	SMILES
4.65	Cc1ccc2c(c1)C(NC(=O)N(CCCl)N=O)c1ccccc1O2 (stereo unspecified)
5.19	Cc1cc(C)c2c(c1)C(NC(=O)N(CCCl)N=O)c1ccccc1O2 (stereo unspecified)
4.77	Cc1cccc2c1Oc1ccccc1C2NC(=O)N(CCCl)N=O (stereo unspecified)
3.49	CCN(CC)CC(=O)NC1c2ccccc2Oc2ccccc21
2.61	Cc1cccc2c1Oc1ccccc1C2NC(=O)CCN(C)C (stereo unspecified)
4.59	O=NN(CCCl)C(=O)NC1c2ccccc2Sc2ccccc21
3.68	COc1cccc2c1Oc1ccccc1C2NC(=O)N(CCCl)N=O (stereo unspecified)
5.03	Cc1cccc2c1Sc1ccccc1C2NC(=O)N(CCCl)N=O (stereo unspecified)
4.86	CCOc1ccc2c(c1)C(NC(=O)N(CCCl)N=O)c1ccccc1O2 (stereo unspecified)
4.24	CCN(CC)CC(=O)NC1c2ccccc2Sc2c(C)cccc21 (stereo unspecified)
4.17	O=NN(CCCl)C(=O)NC1c2ccccc2Oc2ccccc21
4.48	COc1ccc2c(c1)C(NC(=O)N(CCCl)N=O)c1ccccc1O2 (stereo unspecified)
2.19	Cc1cccc2c1Oc1ncccc1C2NC(=O)CN(C)C (stereo unspecified)
4.13	O=NN(CCCl)C(=O)NCC1c2ccccc2Oc2ccccc21
5.01	Cc1ccc2c(c1)C(NC(=O)N(CCCl)N=O)c1ccccc1S2 (stereo unspecified)

SMILES	logP
O=NN(CCCl)C(=O)NCCSC1c2ccccc2Oc2ccccc21	5

— the SangsterLogP compilation
